Data reported in paper PMC9851200, “Multiparameter phenotypic screening for endogenous TFEB and TFE3 translocation identifies novel chemical series modulating lysosome function” (Autophagy, 2022).
Entries after “also recorded” stand apart in the source; their conditions may differ.

Assays:
SH-SY5Y cells [1] = assay: Nuclear count from microscopy images (cellular growth and toxicity); conditions: PKIS2 primary screening
endogenous TFE3 = assay: TFE3 nuclear translocation, immunocytochemistry high-content imaging; type: cell-based; conditions: for TFE3 %: PKIS2 primary screening; for TFE3 translocation (in words): SH-SY5Y, 24 h treatment
SH-SY5Y cells [2] = conditions: for DQ Intensity / DQ Spot: PKIS2 primary screening; for DQ Intensity: DQ Red BSA intensity; for DQ Spot: DQ Red BSA spot count
From the text: The PKIS2 Library was supplied by The Structural Genomics Consortium at the University of North Carolina at Chapel Hill.

SH-SY5Y cells [3] = assay: Chemotype enrichment analysis of PKIS2 primary screen hit categories; conditions: PKIS2 primary screening, hit category
endogenous TFEB = assay: TFEB nuclear translocation, immunocytochemistry high-content imaging; type: cell-based; conditions: for TFEB %: PKIS2 primary screening; for TFEB translocation (in words): SH-SY5Y, 24 h treatment
SH-SY5Y cells [4] = assay: AK (adenylate kinase) release ToxiLight cytotoxicity assay; conditions: for AK: PKIS2 primary screening; for Cellular toxicity (AK release and nuclear count, in words): SH-SY5Y, 24 h treatment
Method: Total cell lysis with 5 µL 5% Triton-X 100 (Sigma-Aldrich, T8787) is used as a positive control for the assay and toxicity is expressed as a percentage of luminescence under DMSO conditions.

| Compound | Nuclear Count (SH-SY5Y cells [1]) | TFE3 % (endogenous TFE3) | TFE3 translocation (in words) (endogenous TFE3) | DQ Intensity (SH-SY5Y cells [2]) | DQ Spot (SH-SY5Y cells [2]) | DQ Red BSA fluorescence intensity (in words) (SH-SY5Y cells [2]; SH-SY5Y, 24 h treatment) | DQ Red BSA spot count / active lysosome count (in words) (SH-SY5Y cells [2]; SH-SY5Y, 24 h treatment) | Outcome (SH-SY5Y cells [3]) | TFEB % (endogenous TFEB) | TFEB translocation (in words) (endogenous TFEB) | AK (SH-SY5Y cells [4]) | Cellular toxicity (AK release and nuclear count, in words) (SH-SY5Y cells [4]) |
| --- | --- | --- | --- | --- | --- | --- | --- | --- | --- | --- | --- | --- |
| COc1ccc(C[C@@H](CN)NC(=O)c2cc(Br)c(-c3ccnc4[nH]ccc34)s2)cc1.Cl.Cl [UNC10225412A, reference compound] | 99.32 | 22.21% | strong TFE3 translocation; also recorded: translocation of TFEB and TFE3 | 276.55 | 119.63 | increase in DQ Red BSA fluorescence intensity | small reduction in puncta count | TOXIC | 17.53% | translocation of TFEB and TFE3 | 302.26 | no toxicity; also recorded: without cellular toxicity |
| Cc1ccc(C(=O)Nc2ccc(Nc3ccnc4cc(-c5nccs5)ccc34)cc2O)cc1.Cl [UNC10225432A] | 89.90 | 56.52% |  | 38.26 | 36.88 |  |  | LYSO TOXIC | 8.56% |  | 74.29 |  |
| c1ccc(-c2n[nH]cc2Nc2ccnc3ccccc23)nc1 [UNC10225048A] | 152.96 | 9.11% |  | 106.75 | 56.59 |  |  | LYSO TOXIC | 2.79% |  | 99.18 |  |
| COc1ccc(-c2nc3n(c2-c2ccncc2)CCC3)cc1 [UNC10225334A] | 82.13 | 11.25% |  | 120.06 | 119.57 |  |  | DQ Only | 5.64% |  | 77.50 |  |
| Fc1cc(Cl)ccc1Nc1ccnc2cc(-c3ccc(CN4CCSCC4)o3)ccc12 [UNC10225290A] | 127.72 | 15.63% |  | 59.38 | 53.95 |  |  | LYSO TOXIC | 9.12% |  | 104.94 |  |
| CC(C)(C)c1ccc2nccc(Nc3cccc(O)c3)c2c1 [UNC10225361A] | 71.73 | 26.88% |  | 97.55 | 54.23 |  |  | LYSO TOXIC | 10.76% |  | 101.00 |  |
| CN(C)S(=O)(=O)c1cc(-c2ccc3nccc(-c4cccc(S(N)(=O)=O)c4)c3c2)cnc1N [UNC10225457A] | 78.66 | 3.13% |  | 100.41 | 77.18 |  |  | LYSO TOXIC | 2.30% |  | 74.17 |  |
| Fc1cc(Cl)ccc1Nc1ccnc2cc(I)ccc12 [UNC10225189A] | 145.49 | 9.39% |  | 39.14 | 61.91 |  |  | LYSO TOXIC | 3.86% |  | 112.41 |  |
| Cl.Oc1cccc(Nc2ccnc3cc(-c4ccncc4)ccc23)c1 [UNC10225467A] | 88.58 | 10.65% |  | 34.95 | 51.42 |  |  | LYSO TOXIC | 5.92% |  | 125.78 |  |
| Cl.c1ccc(-c2ccc3c(Nc4ccc5[nH]ncc5c4)ccnc3c2)nc1 [UNC10225007A] | 105.78 | 16.03% |  | 77.57 | 57.65 |  |  | LYSO TOXIC | 7.66% |  | 108.57 |  |
| Cl.Nc1ncnc2occ(-c3ccc(NC(=O)Nc4cc(C(F)(F)F)ccc4F)cc3)c12 [UNC10112792A] | 92.62 | 17.19% |  | 73.11 | 78.83 |  |  | LYSO TOXIC | 5.26% |  | 84.72 |  |
| c1ccc(-c2ccnc3[nH]ccc23)cc1 [UNC10225337A] | 120.86 | 8.32% |  | 103.32 | 96.87 |  |  | TOXIC | 6.67% |  | 289.20 |  |
| Cl.Cl.NC(CNC(=O)c1cc(Br)c(-c2ccnc3[nH]ccc23)s1)c1ccccc1 (centres unmarked) [UNC10225176A] | 58.33 | 37.70% |  | 298.60 | 72.64 |  |  | TFEB/3 + DQ Int | 17.27% |  | 110.45 |  |
| CN1CCN(Cc2cccc(-c3ccc4c(Nc5ccc(Oc6ccccc6)cc5)ccnc4c3)c2)CC1 [UNC10225484A, reference compound] | 88.62 | 42.01% | some TFEB and TFE3 translocation; also recorded: modest TFEB and 3 translocation at 2 µM | 129.44 | 68.80 |  | reduction in active lysosome spots; also recorded: correlated drop in DQ Red BSA spot count | LYSO TOXIC | 9.01% | some TFEB and TFE3 translocation; also recorded: modest TFEB and 3 translocation at 2 µM | 84.86 | no indication of cellular toxicity |
| Cl.Cl.NC[C@H](Cc1ccc(C(F)(F)F)cc1)NC(=O)c1cc(Br)c(-c2ccnc3[nH]ccc23)s1 [UNC10225108A] | 144.66 | 23.22% |  | 147.21 | 85.33 |  |  | TFE3 | 5.26% |  | 105.44 |  |
| Cc1ccc(C(=O)Nc2ccc(Nc3ccnc4cc(-c5ccccn5)ccc34)cc2O)cc1.Cl [UNC10225182A] | 71.22 | 92.07% |  | 19.25 | 15.81 |  |  | LYSO TOXIC | 30.37% |  | 82.72 |  |
| Cc1ccc(O)cc1Nc1ccnc2ccc(C(C)(C)C)cc12 [UNC10225479A] | 78.69 | 19.57% |  | 91.49 | 60.27 |  |  | LYSO TOXIC | 23.46% |  | 75.82 |  |
| CS(=O)(=O)c1ccc(-c2nc3n(c2-c2ccncc2)CCC3)cc1 [UNC10224995A] | 122.53 | 13.24% |  | 130.38 | 113.84 |  |  | TOXIC | 6.71% |  | 200.60 |  |
| FC(F)(F)c1ccc(-c2ncn(CCCN3CCOCC3)c2-c2ccncc2)cc1 [UNC10225425A] | 88.34 | 9.69% |  | 74.41 | 77.10 |  |  | LYSO TOXIC | 5.42% |  | 109.44 |  |
| Nc1ncc(-c2ccc3nccc(-c4ccncc4)c3c2)cc1S(=O)(=O)N1CCCCC1 [UNC10225117A] | 82.78 | 4.68% |  | 254.18 | 83.51 |  |  | TOXIC | 3.14% |  | 150.20 |  |
